Experiments:
BRD3 (His-Brd3(20-477)) = BRD3 (His-Brd3(20-477)) (Homo sapiens (Human), UniProt Q15059); assay: TR-FRET in-vitro binding assay for BRD3; conditions: single determination or n ≧ 2 independent determinations, read-out: Biochemical IC50 BRD3
How it was run: (§1)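 In this TR-FRET format, each compound was tested as an 8-point dilution series, single point per concentration, dispensed from 90% DMSO solution. Incubation lasted 35 minutes at 30° C.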

[1] = molecular target: nuclear BRD4-NUT foci in HCC2494 NUT midline carcinoma cells (Homo sapiens, UniProt O60885); assay: cell-based
MV-4-11 cells = assay: Cell growth inhibition assay (CellTiter-Glo), MV-4-11; conditions: for GI50: Homo sapiens, MV4-11, read-out: MV-4-11 GI50; for MV-4-11 TGI: MV-4-11 cells, total growth inhibition, CellTiter-Glo;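 as to all read-outs here: cellular ATP luminescence after 4 days, 3-fold dilution series from 10 µM top dose, vehicle (0.1% DMSO) set to 100%, cell-free medium set to −100%, day 0 corrected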
BRD4 (His-Brd4(44-477)) = BRD4 (His-Brd4(44-477)) (Homo sapiens (Human), UniProt O60885); assay: TR-FRET in-vitro binding assay for BRD4; conditions: single determination or n ≧ 2 independent determinations, read-out: Biochemical IC50 BRD4
How it was run: as §1

THP-1 cells = assay: Cell growth inhibition assay (CellTiter-Glo), THP-1; conditions: for GI50: Homo sapiens, THP-1, read-out: THP-1 GI50; for THP-1 TGI: THP-1 cells, total growth inhibition, CellTiter-Glo;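 as to all read-outs here: viability read as cellular ATP luminescence after 4 days, 3-fold dilution series from 10 µM, DMSO vehicle-treated cells taken as 100%, cell-free medium wells as −100%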
BRD2 (His-Brd2(60-472)) = BRD2 (His-Brd2(60-472)) (Homo sapiens (Human), UniProt P25440); assay: TR-FRET in-vitro binding assay for BRD2; conditions: single determination or n ≧ 2 independent determinations, read-out: Biochemical IC50 BRD2
Sequence of BRD2 (His-Brd2(60-472)) (P25440 60-472): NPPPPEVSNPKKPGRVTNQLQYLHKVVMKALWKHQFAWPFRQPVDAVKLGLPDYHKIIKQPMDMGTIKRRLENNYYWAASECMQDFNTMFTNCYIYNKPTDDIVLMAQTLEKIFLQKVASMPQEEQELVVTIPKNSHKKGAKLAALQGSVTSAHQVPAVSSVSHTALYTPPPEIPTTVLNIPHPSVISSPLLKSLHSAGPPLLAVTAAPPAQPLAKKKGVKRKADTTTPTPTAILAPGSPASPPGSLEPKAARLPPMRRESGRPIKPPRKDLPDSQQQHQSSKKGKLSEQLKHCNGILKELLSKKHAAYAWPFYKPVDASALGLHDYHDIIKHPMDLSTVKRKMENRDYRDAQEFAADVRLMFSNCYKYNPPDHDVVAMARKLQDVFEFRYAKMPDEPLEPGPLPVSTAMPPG
How it was run: as §1

[2] = molecular target: CREBBP bromodomain (His-CREBBP(1081-1197)) (Homo sapiens (Human), UniProt Q92793); assay: AlphaScreen in-vitro binding assay for CREBBP; conditions: single determination or n ≧ 2 independent determinations, read-out: Biochemical IC50 CREBBP
Sequence of CREBBP bromodomain (His-CREBBP(1081-1197)) (Q92793 1081-1197): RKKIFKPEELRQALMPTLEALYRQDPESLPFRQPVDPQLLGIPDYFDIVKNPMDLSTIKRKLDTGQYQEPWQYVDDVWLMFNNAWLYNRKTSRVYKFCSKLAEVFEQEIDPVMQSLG
How it was run: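 Detection used nickel-chelate acceptor plus streptavidin donor AlphaScreen beads, 1 h room temperature. Percent inhibition fitted by non-linear regression to IC50.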

K-562 cells = assay: Cell growth inhibition assay (CellTiter-Glo), K-562; conditions: for GI50: Homo sapiens, K562, read-out: K-562 GI50; for K-562 TGI: K-562 cells, total growth inhibition, CellTiter-Glo;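 as to all read-outs here: cellular ATP measured by luminescence after 4 days of exposure, 3-fold dilution series from 10 µM, DMSO vehicle-treated cells define 100%, cell-free medium wells −100%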

Sequence of BRD3 (His-Brd3(20-477)) (Q15059 20-477): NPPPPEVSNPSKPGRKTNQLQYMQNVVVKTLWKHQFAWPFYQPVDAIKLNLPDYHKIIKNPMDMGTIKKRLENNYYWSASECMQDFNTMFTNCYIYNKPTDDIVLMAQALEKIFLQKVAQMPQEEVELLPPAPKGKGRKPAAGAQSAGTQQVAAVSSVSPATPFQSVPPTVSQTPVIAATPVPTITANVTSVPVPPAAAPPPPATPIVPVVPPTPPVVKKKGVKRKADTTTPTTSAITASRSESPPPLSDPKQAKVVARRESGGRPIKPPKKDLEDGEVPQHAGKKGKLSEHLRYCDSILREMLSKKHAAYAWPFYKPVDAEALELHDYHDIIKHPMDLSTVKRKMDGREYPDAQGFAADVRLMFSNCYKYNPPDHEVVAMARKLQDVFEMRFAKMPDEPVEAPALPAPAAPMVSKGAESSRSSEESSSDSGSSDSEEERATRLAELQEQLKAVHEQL

Compound	IC50 (BRD3 (His-Brd3(20-477))) [nM]	IC50 [1] [nM]	GI50 (MV-4-11 cells) [nM]	MV-4-11 TGI (MV-4-11 cells) [nM]	IC50 (BRD4 (His-Brd4(44-477))) [nM]	GI50 (THP-1 cells) [nM]	THP-1 TGI (THP-1 cells) [nM]	IC50 (BRD2 (His-Brd2(60-472))) [nM]	IC50 [2] [nM]	GI50 (K-562 cells) [nM]	K-562 TGI (K-562 cells) [nM]
Cc1cc(N2C(=O)c3[nH]c(C4CC4)nc3[C@H]2c2ccc(Cl)cc2)cn(C)c1=O [Example 47, R-6-(4-chlorophenyl)-2-cyclopropyl-5-(1,5-dimethyl-6-oxo-1,6-dihydropyridin-3-yl)-5,6-dihydropyrrolo[3,4-d]imidazol-4(3H)-one]	38	81.3	42.5	102.8	40	74.3	141	39	1100	305	>10000
CCn1c(-c2ccnn2C)nc2c1C(=O)N(c1cc(C)c(=O)n(C)c1)C2c1ccc(Cl)cc1 (stereo not shown) [Example 42, 6-(4-chlorophenyl)-5-(1,5-dimethyl-6-oxo-1,6-dihydropyridin-3-yl)-3-ethyl-2-(1-methyl-1H-pyrazol-5-yl)-5,6-dihydropyrrolo[3,4-d]imidazol-4(3H)-one]	61	64.2	53.5	102.3	69	74.3	126	65	3400	274	>10000
COc1ccc(-c2nc3c(n2C)C(=O)N(c2cc(C)c(=O)n(C)c2)[C@@H]3c2ccc(Cl)cc2)cn1 [Example 7, (R)-6-(4-chlorophenyl)-5-(1,5-dimethyl-6-oxo-1,6-dihydropyridin-3-yl)-2-(6-methoxypyridin-3-yl)-3-methyl-5,6-dihydropyrrolo[3,4-d]imidazol-4(3H)-one]	48	73.5	44.6	85	56	65.5	111	60	1500	170	>10000
COc1cc(N2C(=O)c3nc(C4=CCOCC4)n(C(C)C)c3C2c2ccc(Cl)cc2)cn2c(C)nnc12 (stereo not shown) [Example 53, 6-(4-chlorophenyl)-2-(3,6-dihydro-2H-pyran-4-yl)-1-isopropyl-5-(8-methoxy-3-methyl-[1,2,4]triazolo[4,3-a]pyridin-6-yl)-5,6-dihydropyrrolo[3,4-d]imidazol-4(1H)-one]	200	1330	505	939	92	1270	3740	220	> 37000	7990	>10000
Cc1cc(N2C(=O)c3nc(-c4ncco4)n(C(C)C)c3C2c2ccc(Cl)cc2)cn2c(C)nnc12 (stereo not shown) [Example 15, 6-(4-chlorophenyl)-5-(3,8-dimethyl-[1,2,4]triazolo[4,3-a]pyridin-6-yl)-1-isopropyl-2-(oxazol-2-yl)-5,6-dihydropyrrolo[3,4-d]imidazol-4(1H)-one]	41	80	42	86.25	37	71.9	132	48	16100	318	>10000
COc1ccc(-c2nc3c(n2C)C(c2ccc(Cl)cc2)N(c2cc(C)c4nnc(C)n4c2)C3=O)cn1 (stereo not shown) [Example 16, 6-(4-chlorophenyl)-5-(3,8-dimethyl-[1,2,4]triazolo[4,3-a]pyridin-6-yl)-2-(6-methoxypyridin-3-yl)-1-methyl-5,6-dihydropyrrolo[3,4-d]imidazol-4(1H)-one]	47	263	74.3	125.5	45	220	370	49	> 24000	562	>10000
CCn1c(-c2ccc(OC)nc2)nc2c1C(=O)N(c1cc(C)c(=O)n(C)c1)C2c1ccc(Cl)cc1 (stereo not shown) [Example 38, 6-(4-chlorophenyl)-5-(1,5-dimethyl-6-oxo-1,6-dihydropyridin-3-yl)-3-ethyl-2-(6-methoxypyridin-3-yl)-5,6-dihydropyrrolo[3,4-d]imidazol-4(3H)-one]	76	24.5	30.1	48.9	78	74.9	118	92.5	2000	271	>10000
Cc1cc(N2C(=O)c3nc(C4CC4)n(C(C)C)c3C2c2ccc(Cl)cc2)cn2c(C)nnc12 (racemic) [Example 13, 6-(4-chlorophenyl)-2-cyclopropyl-5-(3,8-dimethyl-[1,2,4]triazolo[4,3-a]pyridin-6-yl)-1-isopropyl-5,6-dihydropyrrolo[3,4-d]imidazol-4(1H)-one]	39	16.1	11.3	27.15	37	26.1	59.45	41	4500	114	>10000
COc1ccc(-c2nc3c(n2C)C(c2ccc(Cl)cc2)N(c2cc(C)c(=O)n(C)c2)C3=O)cn1 (stereo not shown) [Example 8, 6-(4-chlorophenyl)-5-(1,5-dimethyl-6-oxo-1,6-dihydropyridin-3-yl)-2-(6-methoxypyridin-3-yl)-1-methyl-5,6-dihydropyrrolo[3,4-d]imidazol-4(1H)-one]	79	92	51	98	86	152	314	91	970	309	>10000
COc1ccc(-c2nc3c(n2C)C(=O)N(c2cc(C)c(=O)n(C)c2)C3c2ccc(Cl)cc2)cn1 (stereo not shown) [Example 6, 6-(4-chlorophenyl)-5-(1,5-dimethyl-6-oxo-1,6-dihydropyridin-3-yl)-2-(6-methoxypyridin-3-yl)-3-methyl-5,6-dihydropyrrolo[3,4-d]imidazol-4(3H)-one]	88	86.3	60.1	102	92	161	324	88	2700	230	>10000
Cc1cc(N2C(=O)c3nc(C)n(C(C)C)c3C2c2ccc(Cl)cc2)cc2c1nnn2C (racemic) [Example 2, 6-(4-chlorophenyl)-5-(3,7-dimethyl-3H-benzo[d][1,2,3]triazol-5-yl)-1-isopropyl-2-methyl-5,6-dihydropyrrolo[3,4-d]imidazol-4(1H)-one]	15	14.5	13.8	28.65	20	23.4	40.95	33	8600	95.9	>10000

From US9890166B2, “Imidazopyrrolidine derivatives and their use in the treatment of disease” (NOVARTIS AG, priority 2013, dated 2018)
